What was measured:
[1] = test system: U373 cells; assay: Trypan blue viability assay, U373; assay type: cell-based, human; conditions: 72 h treatment
Procedure: FIG. 9. Viability of U373 cells by trypan blue staining. U373 cells were treated for 72 h with 1 or 13 and stained with trypan blue. The experiment was conducted once in triplicate. After having taken pictures, cells were fixed with ice-cold methanol and again stained with trypan blue as internal positive control.
To confirm the results obtained in the videomicroscopy experiments, trypan blue assay was employed to detect necrotic and late apoptotic cells that had lost their plasma membrane integrity (FIG. 9). […] These observations support the results of the MTT assay and provide an explanation for the effectiveness of the C12-Wittig derivatives against cells, which display resistance to apoptosis induction. In contrast, at the concentrations necessary to induce cancer cell death 1 behaves as a toxic fixative compound of little promise as a potential drug.

[2] = test system: Cal27-derived tumors; assay: Mouse xenograft model, Cal27; assay type: in vivo, athymic nude mice
Procedure: Six-week old female athymic nude mice were used in laminar air-flow cabinet in pathogen-free conditions. They were acclimated for one week prior to the start of the study and kept at controlled temperature and humidity, with food and water. Mice were injected subcutaneously in the flank with 2×10^6 Cal27 cells or HeLa cells in 0.1 mL of sterile PBS. When the tumors reached 100 mm^3 (Cal27) and 150 mm^3 (HeLa), the mice were stratified into 4 groups, […], polygodial, P10, P3 and P27 at the concentrations noted in the figure legends.

[3] = test system: OSCC cell line HSC3; assay: Cell viability (Cell Titer 96 Aqueous), HSC3; assay type: cell-based, human; conditions: for reversal of cytotoxicity by N-acetyl-cysteine: 60 μM compound ± 10 mM NAC; for cancer cell viability, HSC3: 48 hours, potency order P10, polygodial, P3
Excerpt: Human cancer cell lines were obtained from the American Type Culture Collection (ATCC, Manassas, Va., USA), the European Collection of Cell Culture (ECACC, Salisbury, UK) and the Deutsche Sammlung von Mikroorganismen und Zellkulturen (DSMZ, Braunschweig, Germany). The OSCC cell lines, Cal27 and HSC3 are derived from human primary tongue tumor. Cal27 cells were obtained from the American Type Culture Collection (Rockville, Md.). HSC3 cells were provided by Dr. Brian Schmidt. HeLa cells (cervical cancer cell line) were obtained from ATCC. Cells were cultured in DMEM, containing 10% FBS and 1% penicillin-streptomycin media, at 37° C. in 5% CO2. All cells were authenticated by Genetic DNA Laboratories.
The cytotoxicity of polygodial, P10, P3, and P27 in Cal27, HSC3, and HeLa cells was examined in vitro using a colorimetric assay, Cell Titer 96® Aqueous Non-Radioactive Cell Proliferation Assay. […] GraphPad Prism4 was used to perform statistical analysis.

[4] = test system: HSC3 cells; assay: Morphological changes, HSC3; assay type: cell-based, human; conditions: P3 50 μM, 1 hour
Procedure: FIGS. 12A-B Morphological changes (20×) in HeLa cells (FIG. 12Aa-d) and HSC3 cells (FIG. 12Ba-d) with no treatment (a) or treated with Polygodial 80 μM (b), P10 4 μM (c), and P3 50 μM (d) for 1 hour. Differences in morphological changes between treatments indicate potentially unique mechanisms-of-action between polygodial and P10 (isomer), and P3 (novel analog).

[5] = test system: U87 glioblastoma cell cultures; assay: MTT growth curves, U87; assay type: cell-based, human; conditions: apoptosis-resistant U87 GBM; concentrations up to 100 μM
Procedure: Human mammary carcinoma MCF-7 (ATCC HTB22) cells were cultured in RPMI supplemented with 10% FBS. The U87 cells (ATCC HTB-14) were cultured in DMEM culture medium, while the A549 cells (DSMZ ACC107) were cultured in RPMI culture medium supplemented with 10% heat-inactivated FBS. The GBM Hs683 (ATCC HTB-138) cells were cultivated in DMEM supplemented with 10% FBS. The human uterine sarcoma MES-SA (ATCC CRL1966) and MES-SA/D×5 cells were cultured in RPMI-1640 medium supplemented with 10% FBS with MES SA/D×5 maintained in the presence of 500 nM Doxorubicin (Sigma). SKMEL-28 cells (ATCC HTB72) and U373 GBM cells (ECACC 08061901) were cultured in RPMI culture medium supplemented with 10% heat-inactivated FBS. Cell culture media were supplemented with 4 mM glutamine (Lonza code BE17-605E), 100 μg/mL gentamicin (Lonza code 17-5182), and penicillin-streptomycin (200 units/ml and 200 μg/ml) (Lonza code 17-602E). The MDA-MB-231 (ATCC HTB-26) epithelial mammary adenocarcinoma cells were cultured in Eagle's minimum essential medium (EMEM; Invitrogen) containing 5% fetal calf serum (FCS, Cambrex), 2 mM L-glutamine (Invitrogen), 0.06% HEPES (Invitrogen) and penicillin (50 IU/ml)/streptomycin (50 µg/ml; Invitrogen) at 37° C. in a humidified atmosphere of 5% CO2 in air. Transformed mouse NPCs were cultured in suspension under neurosphere conditions at 37° C. in a humidified atmosphere of […] and 5% CO2 in DMEM F12 (Invitrogen 11320-074) supplemented with 1×B27 supplement (Invitrogen 17504-044), 5% penicillin-streptomycin (Biochrom 10378-017), 10 ng/ml EGF (R&D systems 236-EG), 10 ng/ml FGF (PeproTech 100-18B).
Antiproliferative properties of the synthesized compounds were evaluated by the MTT assay. All compounds were dissolved in DMSO at a concentration of either 100 μM or 50 μM prior to cell treatment. The cells were trypsinized and seeded at various cell concentrations depending on the cell type. […]

| SMILES | viability by trypan blue staining [1] | anti-tumor effect, Cal27-derived tumors ([2]; 40 μg/100 μl intra-tumor injection every other day for 18 days, no significant difference between polygodial and P27) | inflammatory response, Cal27 xenograft mice ([2]; days 2-4, intra-tumor injection) | reversal of cytotoxicity by N-acetyl-cysteine [3] | cancer cell viability, HSC3 [3] | morphological changes, HSC3 [4] | effect on proliferation/viability of all cells, U87 [5] |
| --- | --- | --- | --- | --- | --- | --- | --- |
| CC1(C)CCC[C@]2(C)[C@@H](C=O)C(C=O)=CC[C@@H]12 [Compound 1, Polygodial] | all blue-stained before methanol fixation | significant anti-tumor effects | notable inflammatory response | Cytotoxicity was reversible | reduced cancer cell viability in vitro |  |  |
| COC(=O)/C=C/C1=CC[C@H]2C(C)(C)CCC[C@]2(C)[C@H]1C=O [Compound 5] |  |  |  | Cytotoxicity was reversible | reduced cancer cell viability in vitro | apoptotic figures | growth inhibitory properties against most of the cells |

Reference: US20180237362A1, “NOVEL POLYGODIAL ANALOGS FOR THE TREATMENT OF CANCER AND OTHER PROLIFERATIVE DISEASES” (THE BOARD OF REGENTS OF THE UNIVERSITY OF TAXAS SYSTEM, priority 2015, published 2018)
